{"source": "patent US11919887B2", "about": "“Substituted tetrahydrofurans as modulators of sodium channels” (Vertex Pharmaceuticals Incorporated, priority 2019, dated 2024)"}
{"target": "human Nav 1.8 (Homo sapiens, UniProt Q9Y5Y9)", "sequence (Q9Y5Y9 whole entry, looked up, the tested form may be a part)": "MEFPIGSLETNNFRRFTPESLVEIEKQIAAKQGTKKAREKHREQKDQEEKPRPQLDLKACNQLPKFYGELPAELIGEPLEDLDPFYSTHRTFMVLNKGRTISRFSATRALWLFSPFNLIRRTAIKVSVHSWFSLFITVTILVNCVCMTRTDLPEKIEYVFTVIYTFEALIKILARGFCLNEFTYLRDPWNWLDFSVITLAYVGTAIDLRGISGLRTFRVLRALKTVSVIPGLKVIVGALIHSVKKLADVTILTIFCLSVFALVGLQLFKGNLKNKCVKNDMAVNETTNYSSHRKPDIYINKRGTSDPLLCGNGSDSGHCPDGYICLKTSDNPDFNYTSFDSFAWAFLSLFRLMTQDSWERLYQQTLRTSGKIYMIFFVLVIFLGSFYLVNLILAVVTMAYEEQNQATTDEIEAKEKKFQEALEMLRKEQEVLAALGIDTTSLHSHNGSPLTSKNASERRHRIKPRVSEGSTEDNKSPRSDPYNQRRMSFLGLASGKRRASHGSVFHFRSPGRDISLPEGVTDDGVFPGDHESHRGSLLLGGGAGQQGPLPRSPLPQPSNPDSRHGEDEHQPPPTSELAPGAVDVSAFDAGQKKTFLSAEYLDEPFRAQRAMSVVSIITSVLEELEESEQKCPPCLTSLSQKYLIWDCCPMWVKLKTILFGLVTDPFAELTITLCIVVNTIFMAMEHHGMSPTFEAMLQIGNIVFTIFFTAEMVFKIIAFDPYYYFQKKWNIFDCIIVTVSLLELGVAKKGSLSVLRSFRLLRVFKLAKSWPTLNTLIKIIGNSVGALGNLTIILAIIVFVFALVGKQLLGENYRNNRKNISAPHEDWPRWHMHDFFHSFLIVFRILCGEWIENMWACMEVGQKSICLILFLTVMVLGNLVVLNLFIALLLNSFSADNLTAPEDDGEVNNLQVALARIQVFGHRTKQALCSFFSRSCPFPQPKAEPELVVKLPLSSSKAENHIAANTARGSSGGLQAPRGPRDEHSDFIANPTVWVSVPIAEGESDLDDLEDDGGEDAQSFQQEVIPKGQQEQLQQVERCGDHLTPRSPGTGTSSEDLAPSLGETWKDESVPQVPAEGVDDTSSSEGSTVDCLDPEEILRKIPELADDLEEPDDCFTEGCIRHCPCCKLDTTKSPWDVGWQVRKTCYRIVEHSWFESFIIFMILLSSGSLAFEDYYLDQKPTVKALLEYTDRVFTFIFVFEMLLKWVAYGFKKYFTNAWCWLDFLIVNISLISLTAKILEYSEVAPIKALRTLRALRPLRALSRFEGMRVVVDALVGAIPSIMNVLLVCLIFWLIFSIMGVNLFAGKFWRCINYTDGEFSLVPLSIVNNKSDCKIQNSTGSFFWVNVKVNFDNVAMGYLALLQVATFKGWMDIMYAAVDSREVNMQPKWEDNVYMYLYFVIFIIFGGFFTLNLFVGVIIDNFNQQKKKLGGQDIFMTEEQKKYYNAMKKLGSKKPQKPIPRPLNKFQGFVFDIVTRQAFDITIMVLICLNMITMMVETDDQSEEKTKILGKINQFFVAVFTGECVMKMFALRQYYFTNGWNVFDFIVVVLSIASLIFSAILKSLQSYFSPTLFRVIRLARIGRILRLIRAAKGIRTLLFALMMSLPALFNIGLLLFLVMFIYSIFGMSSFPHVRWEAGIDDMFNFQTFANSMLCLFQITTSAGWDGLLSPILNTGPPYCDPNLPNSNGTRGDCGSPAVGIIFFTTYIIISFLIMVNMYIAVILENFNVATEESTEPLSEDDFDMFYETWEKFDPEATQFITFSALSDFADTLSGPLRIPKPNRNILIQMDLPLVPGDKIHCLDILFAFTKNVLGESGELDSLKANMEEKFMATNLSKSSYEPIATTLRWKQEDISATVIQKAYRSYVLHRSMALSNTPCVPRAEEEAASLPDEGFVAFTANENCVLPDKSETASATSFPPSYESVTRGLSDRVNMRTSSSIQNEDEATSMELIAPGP", "experiment": "E-VIPR assay detecting and measuring Nav inhibition (HEK cells expressing truncated human Nav 1.8)", "type": "cell-based", "conditions": "in the Presence of Human Serum in the E-VIPR Assay; read-out: IC50", "from_the_text": "Sodium ion channels are voltage-dependent proteins that can be activated by inducing membrane voltage changes by applying electric fields. The electrical stimulation instrument and methods of use, referred to as E-VIPR, are described in International Publication No. WO 2002/008748 A3 and C.-J. Huang et al. Characterization of voltage-gated sodium channel blockers by electrical stimulation and fluorescence detection of membrane potential, 24 Nature Biotech. 439-46 (2006), both of which are incorporated by reference in their entirety. The instrument comprises a microtiter plate handler, an optical system for exciting the coumarin dye while simultaneously recording the coumarin and oxonol emissions, a waveform generator, a current- or voltage-controlled amplifier, and parallel electrode pairs that are inserted into assay plate wells. Under integrated computer control, this instrument passes user-programmed electrical stimulus protocols to cells within the wells of the microtiter plate.\n16-20 hours prior to running the assay on E-VIPR, HEK cells expressing a truncated form of human Nav 1.8 with full channel activity were seeded into microtiter 384-well plates, pre-coated with matrigel, at a density of 25,000 cells per well. 2.5-5% KIR2.1 Bacmam virus was added to the final cell suspension before seeding into cell plates. HEK cells were grown in Dulbecco's Modified Eagle's Medium (DMEM) supplemented with 10% FBS (Fetal Bovine Serum, qualified; Sigma #F4135), 1% NEAA (Non-Essential Amino Acids, Gibco #11140), 1% HEPES (Gibco #15630), 1% Pen-Strep (Penicillin-Streptomycin; Gibco #15140) and 5 μg/ml Blasticidin (Gibco #R210-01). Cells were expanded in vented cap cell culture flasks, with 90-95% humidity and 5% CO2.\nHuman Serum (HS, Millipore #S1P1-01KL, or Sigma SLBR5469V and SLBR5470V as a 50%/50% mixture, for 25% assay final concentration)\nBath1 Buffer: • Sodium Chloride 160 mM (9.35 g/L), Potassium Chloride, 4.5 mM (0.335 g/L), Glucose 10 mM (1.8 g/L), Magnesium Chloride (Anhydrous) 1 mM (0.095 g/L), Calcium Chloride 2 mM (0.222 g/L), HEPES 10 mM (2.38 g/L) in water.\nNa/TMA Cl Bath1 Buffer: • Sodium Chloride 96 mM (5.61 g/L), Potassium Chloride 4.5 mM (0.335 g/L), Tetramethylammonium (TMA)-Cl 64 mM (7.01 g/L), Glucose 10 mM (1.8 g/L), Magnesium Chloride (Anhydrous) 1 mM (0.095 g/L), Calcium Chloride 2 mM (0.222 g/L) HEPES 10 mM (2.38 g/L) in water.\nHexyl Dye Solution (2× concentration): • Bath1 Buffer containing 0.5% β-cyclodextrin (made fresh prior to each use, Sigma #C4767), 8 μM CC2-DMPE and 2 μM DiSBAC6(3). The solution was made by adding 10% Pluronic F127 stock equal to combined volumes of CC2-DMPE and DiSBAC6(3). The order of preparation was first mix Pluronic and CC2-DMPE, then add DiSBAC6(3), then while vortexing add Bath1/β-Cyclodextrin.\nCompound Loading Buffer (2×concentration): Na/TMA Cl Bath1 Buffer containing HS (omitted in experiments run in the absence of human serum (HS)) 50%, VABSC-1 1 mM, BSA 0.2 mg/ml (in Bath-1), KCl 9 mM, DMSO 0.75%.\nAssay Protocol (7 Key Steps): • 1) To reach the final concentration in each well, 400 nL of each compound was pre-spotted (in neat DMSO) into polypropylene compound plates at 250×desired final concentration from an intermediate stock concentration of 0.075 mM, in an 11 point dose response, 3-fold dilution, resulting in a top dose of 300 nM final concentration in the cell plate. Vehicle control (neat DMSO), and positive control (an established Nav1.8 inhibitor, 25 μM final in assay in DMSO) were added manually to the outermost columns of each plate respectively. The compound plate was backfilled with 45 μL per well of Compound Loading Buffer resulting in a 250 fold dilution of compound following a 1:1 transfer of compound into the cell plate (see Step 6). Final DMSO concentration for all wells in the assay was 0.625% (0.75% DMSO was supplemented to the Compound Loading Buffer for a final DMSO concentration of 0.625%). […]", "units": {"IC50": "nM"}}
{"molecule": "COc1cc(F)ccc1[C@@H]1[C@@H](C)[C@@](C)(C(F)(F)F)O[C@H]1C(=O)Nc1ccnc(C(N)=O)c1", "note": "(single isomer, unassigned) [Compound 36]", "IC50": "> 1000"}
{"molecule": "COc1cc(F)ccc1[C@@H]1[C@@H](C(=O)Nc2ccnc(C(N)=O)c2)O[C@@](C)(C(F)(F)F)[C@H]1C", "note": "(single isomer, unassigned) [Compound 37]", "IC50": "100 to 1000"}
{"molecule": "COc1cc(F)ccc1[C@@H]1[C@@H](C(=O)Nc2ccnc(C(N)=O)c2)O[C@](C)(C(F)(F)F)[C@H]1C", "note": "(single isomer, unassigned) [Compound 38]", "IC50": "> 1000"}
{"molecule": "COc1cc(F)ccc1[C@@H]1[C@@H](C)[C@](C)(C(F)(F)F)O[C@H]1C(=O)Nc1ccnc(C(N)=O)c1", "note": "(single isomer, unassigned) [Compound 39]", "IC50": "100 to 1000"}
{"molecule": "COc1cc(F)ccc1[C@H]1[C@H](C(=O)Nc2ccnc(C(N)=O)c2)O[C@](C)(C(F)(F)F)[C@H]1C", "note": "(single isomer, unassigned) [Compound 40]", "IC50": "> 1000"}
{"molecule": "COc1cc(F)ccc1[C@@H]1[C@@H](C(=O)Nc2ccnc(C(N)=O)c2)O[C@@](C)(C(F)(F)F)[C@@H]1C", "note": "(single isomer, unassigned) [Compound 41]", "IC50": "10 to 100"}
{"molecule": "COc1c([C@H]2[C@H](C(=O)Nc3ccnc(C(N)=O)c3)O[C@@](C)(C(F)(F)F)[C@H]2C)ccc(F)c1C(F)F", "note": "(single isomer, unassigned) [Compound 44]", "IC50": "< 10"}
{"molecule": "COc1c([C@@H]2[C@@H](C(=O)Nc3ccnc(C(N)=O)c3)O[C@](C)(C(F)(F)F)[C@@H]2C)ccc(F)c1C(F)F", "note": "(single isomer, unassigned) [Compound 45]", "IC50": "10 to 100"}
{"molecule": "COc1c([C@H]2C[C@@](C)(C(F)(F)F)O[C@@H]2C(=O)Nc2ccc(F)c(C(N)=O)c2)ccc(F)c1F", "note": "(single isomer, unassigned) [Compound 46]", "IC50": "> 1000"}
{"molecule": "COc1c([C@@H]2C[C@](C)(C(F)(F)F)O[C@H]2C(=O)Nc2ccc(F)c(C(N)=O)c2)ccc(F)c1F", "note": "(single isomer, unassigned) [Compound 47]", "IC50": "10 to 100"}
{"molecule": "CNC(=O)c1cc(NC(=O)[C@H]2O[C@](C)(C(F)(F)F)C[C@@H]2c2ccc(F)c(Cl)c2OC)ccn1", "note": "(single isomer, unassigned) [Compound 58]", "IC50": "> 1000"}
{"molecule": "CNC(=O)c1cc(NC(=O)[C@@H]2O[C@](C)(C(F)(F)F)C[C@H]2c2ccc(F)c(Cl)c2OC)ccn1", "note": "(single isomer, unassigned) [Compound 59]", "IC50": "> 1000"}
{"molecule": "CNC(=O)c1cc(NC(=O)[C@@H]2O[C@@](C)(C(F)(F)F)C[C@H]2c2ccc(F)c(Cl)c2OC)ccn1", "note": "(single isomer, unassigned) [Compound 60]", "IC50": "10 to 100"}
{"molecule": "CNC(=O)c1cc(NC(=O)[C@H]2O[C@@](C)(C(F)(F)F)C[C@@H]2c2ccc(F)c(Cl)c2OC)ccn1", "note": "(single isomer, unassigned) [Compound 61]", "IC50": "100 to 1000"}
{"molecule": "COc1c([C@H]2C[C@@H](C(C)(C)C)O[C@@H]2C(=O)Nc2ccnc(C(N)=O)c2)ccc(F)c1F", "note": "(single isomer, unassigned) [Compound 65]", "IC50": "> 1000"}
{"molecule": "COc1c([C@@H]2C[C@H](C(C)(C)C)O[C@H]2C(=O)Nc2ccnc(C(N)=O)c2)ccc(F)c1F", "note": "(single isomer, unassigned) [Compound 66]", "IC50": "100 to 1000"}
{"molecule": "COc1cc(F)ccc1[C@H]1C[C@@](C)(C(F)(F)F)O[C@H]1C(=O)Nc1ccnc(C(N)=O)c1", "note": "(single isomer, unassigned) [Compound 69]", "IC50": "> 1000"}
{"molecule": "COc1c([C@H]2C[C@@](C)(C(F)(F)F)O[C@@H]2C(=O)Nc2ccnc(C(N)=O)c2)ccc(F)c1C", "note": "(single isomer, unassigned) [Compound 71]", "IC50": "> 1000"}
{"molecule": "COc1c([C@@H]2C[C@](C)(C(F)(F)F)O[C@H]2C(=O)Nc2ccnc(C(N)=O)c2)ccc(F)c1C", "note": "(single isomer, unassigned) [Compound 72]", "IC50": "10 to 100"}
{"molecule": "Cc1c(F)ccc([C@H]2C[C@@](C)(C(F)(F)F)O[C@@H]2C(=O)Nc2ccnc(C(N)=O)c2)c1F", "note": "(single isomer, unassigned) [Compound 75]", "IC50": "> 1000"}
{"molecule": "Cc1c(F)ccc([C@@H]2C[C@](C)(C(F)(F)F)O[C@H]2C(=O)Nc2ccnc(C(N)=O)c2)c1F", "note": "(single isomer, unassigned) [Compound 76]", "IC50": "100 to 1000"}
{"molecule": "CCc1c(F)ccc([C@H]2C[C@@](C)(C(F)(F)F)O[C@@H]2C(=O)Nc2ccnc(C(N)=O)c2)c1OC", "note": "(single isomer, unassigned) [Compound 77]", "IC50": "> 1000"}
{"molecule": "CCc1c(F)ccc([C@@H]2C[C@](C)(C(F)(F)F)O[C@H]2C(=O)Nc2ccnc(C(N)=O)c2)c1OC", "note": "(single isomer, unassigned) [Compound 78]", "IC50": "10 to 100"}
{"molecule": "COc1c([C@@H]2C[C@@](C)(CC(F)(F)F)O[C@H]2C(=O)Nc2ccnc(C(N)=O)c2)ccc(F)c1F", "note": "(single isomer, unassigned) [Compound 80]", "IC50": "> 1000"}
{"molecule": "COc1c([C@@H]2C[C@](C)(CC(F)(F)F)O[C@H]2C(=O)Nc2ccnc(C(N)=O)c2)ccc(F)c1F", "note": "(single isomer, unassigned) [Compound 81]", "IC50": "100 to 1000"}
{"molecule": "COc1c([C@H]2C[C@@](C)(CC(F)(F)F)O[C@@H]2C(=O)Nc2ccnc(C(N)=O)c2)ccc(F)c1F", "note": "(single isomer, unassigned) [Compound 82]", "IC50": "> 1000"}
{"molecule": "COc1c([C@H]2C[C@](C)(CC(F)(F)F)O[C@@H]2C(=O)Nc2ccnc(C(N)=O)c2)ccc(F)c1F", "note": "(single isomer, unassigned) [Compound 83]", "IC50": "100 to 1000"}
{"molecule": "COc1c([C@@H]2C[C@@](C)(C(C)(F)F)O[C@H]2C(=O)Nc2ccnc(C(N)=O)c2)ccc(F)c1F", "note": "(single isomer, unassigned) [Compound 84]", "IC50": "> 1000"}
{"molecule": "COc1c([C@H]2C[C@@](C)(C(C)(F)F)O[C@@H]2C(=O)Nc2ccnc(C(N)=O)c2)ccc(F)c1F", "note": "(single isomer, unassigned) [Compound 85]", "IC50": "> 1000"}
{"molecule": "COc1c([C@@H]2C[C@](C)(C(C)(F)F)O[C@H]2C(=O)Nc2ccnc(C(N)=O)c2)ccc(F)c1F", "note": "(single isomer, unassigned) [Compound 86]", "IC50": "> 1000"}
{"molecule": "COc1c([C@H]2C[C@](C)(C(C)(F)F)O[C@@H]2C(=O)Nc2ccnc(C(N)=O)c2)ccc(F)c1F", "note": "(single isomer, unassigned) [Compound 87]", "IC50": "100 to 1000"}
{"molecule": "CC(C)Oc1c([C@@H]2[C@@H](C(=O)Nc3ccnc(C(N)=O)c3)O[C@](C)(C(F)(F)F)[C@@H]2C)ccc(F)c1F", "note": "(single isomer, unassigned) [Compound 88]", "IC50": "> 1000"}
{"molecule": "CC(C)Oc1c([C@H]2[C@H](C(=O)Nc3ccnc(C(N)=O)c3)O[C@@](C)(C(F)(F)F)[C@H]2C)ccc(F)c1F", "note": "(single isomer, unassigned) [Compound 89]", "IC50": "< 10"}
{"molecule": "C[C@@H]1[C@H](c2ccc(F)c(F)c2)[C@@H](C(=O)Nc2ccnc(C(N)=O)c2)O[C@]1(C)C(F)(F)F", "note": "(single isomer, unassigned) [Compound 90]", "IC50": "> 1000"}
{"molecule": "C[C@H]1[C@@H](c2ccc(F)c(F)c2)[C@H](C(=O)Nc2ccnc(C(N)=O)c2)O[C@@]1(C)C(F)(F)F", "note": "(single isomer, unassigned) [Compound 91]", "IC50": "100 to 1000"}
{"molecule": "CC[C@@H]1[C@H](c2ccc(F)c(F)c2OC)[C@@H](C(=O)Nc2ccnc(C(N)=O)c2)O[C@]1(C)C(F)(F)F", "note": "(single isomer, unassigned) [Compound 92]", "IC50": "> 1000"}
{"molecule": "CC[C@H]1[C@@H](c2ccc(F)c(F)c2OC)[C@H](C(=O)Nc2ccnc(C(N)=O)c2)O[C@@]1(C)C(F)(F)F", "note": "(single isomer, unassigned) [Compound 93]", "IC50": "< 10"}
